Data on 1 compound can be found in PMC6370995, “Phase I study of PF‐04895162, a Kv7 channel opener, reveals unexpected hepatotoxicity in healthy subjects, but not rats or monkeys: clinical evidence of disrupted bile acid homeostasis” (Pharmacology Research & Perspectives, 2019).

For orientation: IC50 means the concentration that inhibits the measured activity by half. High values mean a need for much substance, low ones inhibition by little substance. In general, AC50 refers to the concentration giving half of the maximal activity seen. A low value points to greater potency.

The target in data set [1] is T1, MRP4 (Homo sapiens, UniProt O15439).
T1 construct: host or cells: membrane vesicles from HEK293 cells
T1 sequence (O15439 1-1325): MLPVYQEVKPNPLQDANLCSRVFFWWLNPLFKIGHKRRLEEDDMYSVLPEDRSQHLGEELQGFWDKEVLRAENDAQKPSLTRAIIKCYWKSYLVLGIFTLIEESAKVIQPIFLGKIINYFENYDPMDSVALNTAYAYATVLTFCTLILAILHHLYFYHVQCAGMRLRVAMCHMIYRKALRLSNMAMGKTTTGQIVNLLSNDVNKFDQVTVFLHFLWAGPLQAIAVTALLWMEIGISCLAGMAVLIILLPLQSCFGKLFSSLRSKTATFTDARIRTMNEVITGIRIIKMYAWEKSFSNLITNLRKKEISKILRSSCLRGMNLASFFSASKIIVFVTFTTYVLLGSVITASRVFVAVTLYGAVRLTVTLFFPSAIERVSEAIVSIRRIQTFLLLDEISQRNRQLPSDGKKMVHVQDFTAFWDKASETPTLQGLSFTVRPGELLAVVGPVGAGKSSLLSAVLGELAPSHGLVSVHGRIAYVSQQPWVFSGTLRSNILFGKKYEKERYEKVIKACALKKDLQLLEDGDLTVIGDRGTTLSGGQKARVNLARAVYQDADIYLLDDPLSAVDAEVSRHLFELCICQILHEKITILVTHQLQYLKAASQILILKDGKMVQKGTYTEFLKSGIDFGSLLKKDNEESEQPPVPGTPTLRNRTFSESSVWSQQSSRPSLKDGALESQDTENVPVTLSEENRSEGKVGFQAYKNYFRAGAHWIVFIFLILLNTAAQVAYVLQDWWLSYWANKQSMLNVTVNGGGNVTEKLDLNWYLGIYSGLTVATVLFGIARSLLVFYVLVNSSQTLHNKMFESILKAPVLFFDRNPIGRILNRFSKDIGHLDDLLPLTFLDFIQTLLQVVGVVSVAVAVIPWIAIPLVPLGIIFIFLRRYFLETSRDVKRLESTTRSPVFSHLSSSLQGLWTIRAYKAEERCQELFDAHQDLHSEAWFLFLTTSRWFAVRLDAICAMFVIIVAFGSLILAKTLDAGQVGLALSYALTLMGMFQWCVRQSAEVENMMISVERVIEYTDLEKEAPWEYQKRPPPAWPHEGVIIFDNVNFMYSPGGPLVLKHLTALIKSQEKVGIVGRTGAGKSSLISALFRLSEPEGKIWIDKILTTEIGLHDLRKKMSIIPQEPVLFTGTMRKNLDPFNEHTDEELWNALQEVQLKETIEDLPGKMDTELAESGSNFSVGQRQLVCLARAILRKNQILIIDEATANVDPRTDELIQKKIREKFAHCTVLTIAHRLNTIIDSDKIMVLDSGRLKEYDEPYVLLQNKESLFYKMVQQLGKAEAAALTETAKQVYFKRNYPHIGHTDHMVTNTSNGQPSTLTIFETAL
The experiment in a line: MRP4 transporter inhibition in vesicles from HEK293 cells. The data set is classed as biochemical.
Text: […]

Data set [2] has as its system human hepatocytes. The data set is described as follows: human hepatocyte imaging assay (cell loss). Conditions: 48 hours; three assessments in two human hepatocyte lots (LBN and HU4165). The data set is classed as cell-based.
Text: […]

The subject of data set [3] is Sprague-Dawley rats. The data set is described as follows: Preliminary 7-Day Oral Toxicity Study in Rats. To be noted: for gross pathology: animals with impacted feces / microscopic changes in liver (and kidneys): 7 days; for gross pathology: animals with impacted feces: 10 M per group; for microscopic changes in liver (and kidneys): high-dose animals (300 mg/kg); for ALT: once daily for 7 days, 10 to 300 mg/kg/day PO. Type of data set: in vivo.

The target in data set [4] is T2, MRP3 (Homo sapiens, UniProt O15438).
T2 construct: host or cells: membrane vesicles from HEK293 cells
The data set is described as follows: MRP3 transporter inhibition in vesicles from HEK293 cells. Type of data set: biochemical.
Text: […]

T2 sequence (O15438 whole entry): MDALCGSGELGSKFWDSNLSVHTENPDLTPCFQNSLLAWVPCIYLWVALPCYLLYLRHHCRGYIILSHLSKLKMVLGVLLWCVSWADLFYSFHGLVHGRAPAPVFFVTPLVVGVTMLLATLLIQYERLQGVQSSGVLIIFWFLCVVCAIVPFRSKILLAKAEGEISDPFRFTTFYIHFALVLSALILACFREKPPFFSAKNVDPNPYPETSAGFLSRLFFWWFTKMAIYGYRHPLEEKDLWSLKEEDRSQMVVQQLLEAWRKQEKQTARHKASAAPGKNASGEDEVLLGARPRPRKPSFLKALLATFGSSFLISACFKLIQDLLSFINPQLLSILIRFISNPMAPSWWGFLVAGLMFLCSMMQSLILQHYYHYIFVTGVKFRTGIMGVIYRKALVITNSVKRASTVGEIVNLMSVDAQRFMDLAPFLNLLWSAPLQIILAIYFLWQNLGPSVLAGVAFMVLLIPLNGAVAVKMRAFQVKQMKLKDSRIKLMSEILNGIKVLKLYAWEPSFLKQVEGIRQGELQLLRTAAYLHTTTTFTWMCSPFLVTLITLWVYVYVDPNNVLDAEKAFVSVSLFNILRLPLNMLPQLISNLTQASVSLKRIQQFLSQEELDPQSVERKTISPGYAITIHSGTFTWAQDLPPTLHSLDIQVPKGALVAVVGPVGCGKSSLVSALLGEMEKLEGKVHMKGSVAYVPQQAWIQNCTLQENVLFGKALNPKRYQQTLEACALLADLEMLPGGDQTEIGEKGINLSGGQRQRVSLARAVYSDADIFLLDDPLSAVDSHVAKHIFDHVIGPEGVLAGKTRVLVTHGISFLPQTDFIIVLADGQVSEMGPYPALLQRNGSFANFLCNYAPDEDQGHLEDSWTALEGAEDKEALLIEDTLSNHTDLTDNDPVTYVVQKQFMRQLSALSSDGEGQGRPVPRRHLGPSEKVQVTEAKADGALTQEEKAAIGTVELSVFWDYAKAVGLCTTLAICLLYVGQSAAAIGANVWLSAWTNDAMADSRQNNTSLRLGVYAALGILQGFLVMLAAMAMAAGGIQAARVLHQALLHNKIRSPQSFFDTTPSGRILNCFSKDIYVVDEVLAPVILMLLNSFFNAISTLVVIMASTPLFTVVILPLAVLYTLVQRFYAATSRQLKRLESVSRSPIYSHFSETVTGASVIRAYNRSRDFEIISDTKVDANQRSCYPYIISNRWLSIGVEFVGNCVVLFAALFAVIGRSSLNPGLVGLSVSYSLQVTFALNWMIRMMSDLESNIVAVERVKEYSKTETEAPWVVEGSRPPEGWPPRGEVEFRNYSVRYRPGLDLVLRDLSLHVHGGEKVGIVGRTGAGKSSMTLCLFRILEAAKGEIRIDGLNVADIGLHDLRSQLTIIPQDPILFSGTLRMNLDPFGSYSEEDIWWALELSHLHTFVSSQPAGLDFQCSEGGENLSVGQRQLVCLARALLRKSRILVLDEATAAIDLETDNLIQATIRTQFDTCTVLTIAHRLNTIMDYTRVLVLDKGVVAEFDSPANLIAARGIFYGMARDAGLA

For `O=C(Cc1ccc(F)cc1)Nn1c(C2CC2)nc2cc(F)ccc2c1=O` [PF‐04895162, N‐(2‐cyclopropyl‐7‐fluoro‐4‐oxoquinazolin‐3(4H)‐yl)‐2‐(4‐fluorophenyl)ethanamide], the IC50 in data set [1] is 121 µM. The AC50 in data set [2] is over 125 µM. In addition, the “gross pathology: animals with impacted feces” value in data set [3] (100 mg/kg) was 1; in data set [3] (300 mg/kg), 6. The body temperature entry in data set [3] (30, 100, and 300 mg/kg on Day 1 and 300 mg/kg on Day 7) is given as “decreased”. In addition, the Body weight gain result in data set [3] (Days 3, 5, and 7 at 30, 100, and 300 mg/kg) is listed as “suppressed”. Moreover, in data set [3] (early in the study, primarily at 300 mg/kg), the clinical signs result was “tremor, splayed stance, altered gait, piloerection, and mild tremors”. Besides, the “microscopic changes in liver (and kidneys)” value in data set [3] is reported as “no microscopic changes in the liver or kidneys”; in data set [3] (listed as PF-04895162), “no microscopic changes in the liver”. Moreover, the ALT result in data set [3] is “dose-dependent increases in ALT”; in data set [3] (listed as ICA-105665) it was “increased in a dose-dependent manner”. The “effect on MRP3” value in data set [4] was “no inhibitory effect”.
